Consider 91 compounds from a melting point compilation (Tetko et al.; mined from patent text by program, amines drawn as free bases though some values may be those of a salt).

The term melting point denotes the temperature of the solid-liquid transition.

Each structure is given as a SMILES string.

Take `CC1(C)Oc2ccc(C(=O)CN=[N+]=[N-])cc2S1`: the melting point was in the range of 52 to 53 °C. As for `O=C(Nc1cccc(NC(=O)c2ccc(O)cc2)c1)c1ccc(O)cc1`, the figure is 250 °C; as for `CC(C)(C)OC(=O)C1(ON=C(C(=O)O)c2ccco2)CCCC1`, 107 °C; as for `COc1ccc(C(=O)Nc2cccc(C3(C#N)CCCC3)c2)cc1OC`, 59 to 61 °C. Under `CC1(C)CC(OC(=O)CCCCCCCCC(=O)OC2CC(C)(C)N(O)C(C)(C)C2)CC(C)(C)N1O` stands 101 °C; under `CC(C)(C)C(NC(=O)c1ccc(Cl)cc1)Nc1c(Nc2ccc(F)cc2)c(=O)c1=O` (stereo unspecified), 247 to 249 °C. Under `CCOP(=O)(OCC)C(CCc1cc(C)nc2c(Cl)c(-c3ccccc3)nn12)P(=O)(OCC)OCC` stands 66 to 68 °C; under `O=C(OCc1ccc(-c2ccccc2)cc1)c1cccc(CCl)c1`, 102 °C. The compound `FC(F)c1nc2ccccc2n1-c1nc(Nc2cnccn2)nc(N2CCOCC2)n1` had a melting point of 271 to 274 °C. As for `COC(=O)C1CCn2c1cc(Cl)c2C(=O)c1ccccc1` (stereo unspecified), the figure is 106 °C. As for `COc1ccc(/C(=C/C=C/C(=O)Oc2ccc([N+](=O)[O-])cc2)C2CCCCC2)cc1`, the figure is 117 to 119 °C; as for `Cc1ccc(S(=O)(=O)NCCN2C(=O)C3(CCCC3)c3ccccc32)cc1`, 60 °C; as for `OC1(CNCc2ccccn2)CCN(CCCc2c[nH]c3ccc(-n4cnnc4)cc23)CC1`, more than 55 °C. Under `N#Cc1ccc(C(=O)Cl)c(CCl)c1` stands 44 to 44.5 °C; under `Cc1cc(SC2CC(=O)N(c3ccccc3)C2=O)cc(C(C)(C)C)c1O` (stereo unspecified), 158 to 160 °C. Compound `Brc1ccc(-c2cn([C@H]3CN4CCC3CC4)nn2)cc1` displayed a melting point of 158 °C. Under `Cc1nc2cc(C(c3ccccc3)n3ccnc3)ccc2n(N)c1=O` (stereo unspecified) stands 193 °C; under `O=C(N[C@@H](Cc1ccccc1)C(=O)NCCCNC(=O)[C@H](Cc1ccccc1)NC(=O)OCc1ccccc1)OCc1ccccc1`, 226 to 227 °C; under `COc1cccc2c(Cc3nc(-c4ccccc4)co3)coc12`, 101 to 103 °C. In turn, `C=CCN(Cc1cc(Br)ccc1OCc1ccccc1)c1ccc(C(=O)O)nn1` returned a melting point of 135 to 136 °C. As for `N#Cc1cccc(C2=Nc3ccc(C#Cc4ccc(F)cc4)cc3NC(=O)C2)c1`, the figure is 245 to 246 °C; as for `C=CCc1c(F)ccc2c3c([nH]c12)C(CC)(CC(=O)O)OCC3` (stereo unspecified), 123 to 125 °C. Under `Cc1ncc2c(n1)-c1ccc(Cl)cc1C(c1ccccc1F)=NC2` stands 104 to 107 °C; under `Clc1cccc(Oc2ccc3[nH]ccc3c2)n1`, 117 to 118 °C. Under `O=c1cc(-c2ccccc2)oc2ncccc12` stands 103 to 105 °C; under `CCOC(=O)C1=Cc2cc(-c3ccc(C)cc3)ccc2SC1`, 87 °C. For the compound `CONC(=N)c1ccc(-c2ccc(-c3ccc(C(=N)NOC)o3)cc2)cc1`, the melting point fell in the range of 194 to 196 °C. As for `CCCCCCCNC(=O)Nc1ccccc1C(=O)NC1CCN(CCSc2nc(-c3ccccc3)c(-c3ccccc3)[nH]2)CC1`, the figure is 160 to 161 °C; as for `COC(=O)c1cc(Cl)c2nc(C)cn2c1N`, 188 to 191 °C; as for `CC(C)(C)NCC(O)COc1ccc(OCC2CC2)cc1` (stereo unspecified), 90 to 92 °C. Take `COc1cc2c(=O)c(Cc3cccnc3)cn3c4cc(Br)ccc4c(c1)c23`: the melting point lay in the range of 169 to 172 °C. Under `COc1cc(OC)nc(Sc2c(NC(=O)C(F)(F)F)nc(C)n2C)n1` stands 160 to 162 °C; under `O=C(O)c1cnc2ccc(-c3ccc(Cl)cc3)cn12`, 206 °C. In turn, `N#CC(=Cc1ccc(O)c(O)c1)C(N)=O` yielded a melting point of 247 °C. As for `C[C@@H]1[C@@H](N)CN1c1c(F)cc2c(=O)c(C(=O)O)cn3c2c1OC[C@H]3C`, the figure is 217 to 219 °C; as for `O=c1[nH]c(=O)n(Cc2cccc(OCc3noc(-c4ccc(Cl)cc4)n3)c2)o1`, 159 to 160 °C; as for `CCCNC(=O)C(C)Cc1ccc2c(c1)c(Cc1ccc(C(=O)O)cc1OC)cn2C(C)C` (stereo unspecified), 103 to 109 °C. In turn, `COc1cc2ccc3c4cc5c(cc4ncc3c2cc1OC)OCO5` had a melting point of 171 °C. Regarding `Oc1cccc(CCCn2ccnc2)c1`, the melting point lay in the range of 110 to 111 °C. For the compound `CCOC(=O)n1nc(Oc2c(F)cc(C(F)(F)F)cc2Cl)cc1C`, the melting point fell in the range of 127 to 129 °C. As for `COc1ccc(-c2ncc(Cc3ccccc3)nc2-c2ccc(OC)cc2)cc1`, the figure is 107 to 109 °C; as for `CC1(C)c2ccc(C(F)CN3CCN(c4nsc5ccccc45)CC3)cc2C(C)(C)C1O` (stereo unspecified), 49 to 54 °C; as for `Cc1ccc(C(=O)C2=C(O)C(=O)N(c3ncc(S(=O)(=O)c4ccc([N+](=O)[O-])cc4)s3)C2c2cccnc2)cc1` (stereo unspecified), 211 °C. Under `Cn1ccc2c(-n3cc(C(=O)O)c4cccnc43)ncnc21` stands more than 260 °C; under `O[C@H](CCc1cccnc1)COc1ccc(Br)cc1`, 65 to 66 °C; under `COc1cc(OC)c2c(=O)[nH]c(-c3ccc4[nH]c(CO)cc4c3)nc2c1`, 264 to 265 °C. In turn, `CNC1([C@@H]2CCN(c3ccc4c(=O)c(C(=O)O)cn([C@@H]5C[C@@H]5F)c4c3C)C2)CC1` yielded a melting point of 223 to 224 °C. In turn, `CN(C)CCN1C(=O)c2ccc3[nH]c4cc(O)c(O)cc4c3c2C1=O` came in with a melting point of more than 260 °C.

`CCOC(=O)C1C(=O)Nc2ccccc2SC1c1ccc(OC)cc1` (stereo unspecified): the melting point stood at 192 °C. As to `N#CC(O)c1c(Cl)cccc1Cl` (stereo unspecified), the melting point stood at 90 °C. Under `Cc1nc(N2CCc3nc(N)sc3CC2)c([N+](=O)[O-])c(=O)[nH]1` stands more than 200 °C. As for `COc1ccccc1C1(C(=O)O)CCCC1`, the figure is 116 to 124 °C; as for `O=C(CNc1ccccc1)Nc1ccccc1C(=O)O`, 192 to 193 °C. Under `CN(Cc1ccc(NC(=O)C2=Cc3cc(-c4ccc(O)cc4)ccc3S(=O)(=O)CC2)cc1)C1CCOCC1` stands 232 to 234 °C; under `CC(C)(C)OC(=O)NC1C(=O)N(OCc2ccccc2)C12CCOCC2` (stereo unspecified), 144 to 146 °C. Consider `CCCCc1nc2cnc3ccc(O)cc3c2n1C`, for which the melting point was 219 to 220 °C.

For `C=CCNc1nc(NCCCCCCC)c2scc(C)c2n1`, the melting point was 56 to 57 °C. `O=C1NN=C(C=Cc2ccc([N+](=O)[O-])cc2)CS1` registered a melting point of 231 to 240 °C.

`C#CCOC(=O)c1ccc(O)cc1`: the melting point is 82 to 84 °C.

As to `CC(=NO)c1nccc(OCC(F)(F)F)n1`, the melting point fell in the range of 179 to 181 °C.

Consider `O=Cc1c([N+](=O)[O-])ccc(Cl)c1[N+](=O)[O-]`, for which the melting point lay in the range of 101 to 102 °C.

Take `CC(C)(C)N1CC(O)C1`: the melting point is 42 to 43 °C. As for `CC(=O)c1ccccc1NC(C)c1c(Cl)cccc1Cl` (stereo unspecified), the figure is 123 °C; as for `OCCn1cnc2c(Cl)nc3ccccc3c21`, 185 to 187 °C. Under `CCCNC(=O)C1=CCC2C3CCc4cc(O)ccc4C3CCC12C` (stereo unspecified) stands 168 to 169 °C. As for `Cn1ncc(C(=O)N2CCCC2)c1C(=O)Nc1ccn2nc(-c3ccccc3)nc2c1`, the figure is 210 to 215 °C. For `OCC#Cc1ccc(Br)cn1`, the melting point fell in the range of 121 to 122 °C.

The compound `Cc1ccnc2c(Oc3ccccc3NS(=O)(=O)c3ccc(Cl)cc3)cccc12` gave a melting point of 123 to 125 °C. For the compound `CS(=O)(=O)Nc1cc(N)ccc1OC1CCCCC1`, the melting point fell in the range of 152 to 154 °C. As for `CCCCCCC[C@H]1C(=O)OC[C@H](NC(=O)c2nccc(OC)c2O)C(=O)O[C@@H](C)[C@@H]1OC(=O)C(C)C`, the figure is 131 to 134 °C. As for `COc1ccc(C(Cc2ccncc2)c2ccc(C(=O)O)cc2)cc1OC1CCCC1` (stereo unspecified), the figure is 161 to 163 °C.

Compound `C=CCn1c(NNC(=O)CCCl)nc2ccccc2c1=O` gave a melting point of 151 to 153 °C.

For `COC(=O)c1c(Cl)cc(C(F)(F)F)nc1C(F)(F)F`, the melting point lay in the range of 48 to 49 °C. Consider `O=C1CCC(N2Cc3cc(CNC(=O)Nc4ccc(Cl)c(Cl)c4)ccc3C2=O)C(=O)N1` (stereo unspecified), for which the melting point lay in the range of 238 to 240 °C.

`CC(C)(/C=C/c1ccc(C(=O)O)cc1)c1ccc2c(c1)C(C)(C)CCC2(C)C` yielded a melting point of 219 to 220 °C.

The compound `CC(CN=C(O)C(Cl)=C(Cl)C(=O)O)Cc1ccc(C(C)(C)C)cc1` (stereo unspecified) displayed a melting point of 64 to 65 °C. As for `CC(C)S(=O)(=O)Nc1ccc(Br)cc1`, the figure is 98 to 100 °C; as for `Cc1c(-c2ccccc2)c(N2CC[C@H](N(C)C)C2)c2oc(N3CC(O)C3)nc2c1C#N`, 219 to 221 °C. `COc1ccc(-c2cc(COS(C)(=O)=O)c(=O)n(Cc3ccc(F)c(F)c3)n2)cc1F` showed a melting point of 146 to 147 °C.

In the case of `COc1cc(C(C)(C)C)c(OC(C)=O)c(C(C)(C)C)c1`, the melting point worked out at 96.6 °C. Turning to `CCCCn1c(CC)ccc1Cc1cccc(NC(N)=O)c1`, the melting point is 103 to 106 °C.

`CSc1sc(C(=O)N(C)C)c2c1C(=O)CC(C)(C)C2` showed a melting point of 135 to 136 °C. Under `CCCCCCCNC(=O)Nc1ccccc1C(=O)Nc1cccnc1` stands 144 °C. `COc1ccc(C(=O)Cc2c(Cl)cncc2Cl)c2c1OCCO2` came in with a melting point of 158 to 160 °C. Consider `CCC1(CC)COP(=O)(Cc2ccc([N+](=O)[O-])cc2)OC1`, for which the melting point lay in the range of 159 to 160 °C. As for `Brc1ccc(-c2ccncc2)cc1`, the figure is 123 to 124 °C; as for `CC1=NN=C(C=Cc2ccc(C(F)(F)F)cc2)c2cc3c(cc2C1)OCO3`, 188 to 191 °C. Under `O=C(c1ccccc1)n1c2cc(O)c(O)cc2c2cc(O)c(O)cc21` stands 287 to 292 °C; under `Nc1ccc2c(c1)ncn2-c1cccc(-c2cccnc2)c1`, 172 to 175 °C. `CN1CCN(C2=Nc3cc(Cl)cc4c3N(CC4)c3ccccc32)CC1` had a melting point of 199 to 200 °C. With `COc1ccc(C(=O)C#CCO)cc1`, the melting point fell in the range of 84 to 85 °C.
